From patent US9346852B2, “Substituted adipic acid amides and uses thereof” (Bristol-Myers Scuibb Company, priority 2011, dated 2016)

Each compound was assayed against T1, human Y4 stable CHO clonal cells (Homo sapiens, UniProt P50391) (assay: NPY4 cAMP HTRF Agonist Assay). Settings: inhibitory cAMP assay, Gi activation by Y4 agonism, forskolin and IBMX, 30 minutes at room temperature.
T1 construct: expressed in transfected cells
Format: cell-based
Method: NPY4 cAMP HTRF Agonist Assay
The functionality of the compound at Y4 receptor was analyzed using an inhibitory cAMP assay (CISBIO, HTRF cAMP kit #62AM4PEC) to measure the Gi activation by Y4 agonism.
The human Y4 stable CHO clonal cells were maintained in culture medium (F-12 containing 10% Fetal Bovine Serum, […] GENETICIN®, […] Zeocin). Before the experiment, 5 μL of 1 uM Forskolin (Sigma, # F6886) and 100 uM IBMX (Sigma, # I5879) in PBS buffer were added into 384-well plates (PE, Proxi-plate) that were pre-dotted with […] compounds. The cells were removed from the flasks by Cellstripper, counted and adjusted to […] in PBS buffer, and added 5 μL/well (5000 cells/well) into the above 384-well plates. The cells were then covered and incubated for 30 minutes at room temperature. After incubation, 5 μL/well of D2-conjugate in HTRF lysis buffer was first added, followed by adding 5 μL/well of anti-cAMP Cryptate in HTRF lysis buffer. The plates were incubated for another 1 hour at room temperature and read on the EnVision Multilabel Plate Reader.
Compounds described herein were tested in the above assay.

T1 sequence (P50391 whole entry): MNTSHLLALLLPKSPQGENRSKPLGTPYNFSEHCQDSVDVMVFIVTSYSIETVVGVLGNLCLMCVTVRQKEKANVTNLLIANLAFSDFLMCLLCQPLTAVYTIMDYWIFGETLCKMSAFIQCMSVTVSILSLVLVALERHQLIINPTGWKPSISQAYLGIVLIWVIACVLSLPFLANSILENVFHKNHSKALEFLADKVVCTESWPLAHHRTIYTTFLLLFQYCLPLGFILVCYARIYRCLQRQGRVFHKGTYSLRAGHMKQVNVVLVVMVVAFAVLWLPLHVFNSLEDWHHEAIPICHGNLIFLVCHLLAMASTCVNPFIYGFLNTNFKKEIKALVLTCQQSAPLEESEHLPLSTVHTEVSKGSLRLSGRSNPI

SMILES | EC50
COC(=O)[C@@H]1CCC[C@@H]2SCC[C@H](NC(=O)[C@H](CC[C@H](CC(C)C)C(=O)N[C@H]3CCS[C@H]4CCC[C@@H](C(=O)OC)N4C3=O)Cc3ccccc3)C(=O)N21 [Example 4] | 130 nM
COC(=O)[C@@H]1CCC[C@@H]2CCC[C@H](NC(=O)[C@H](CC[C@H](Cc3ccccc3)C(=O)N[C@H]3CCC[C@H]4CCC[C@@H](C(=O)OC)N4C3=O)Cc3ccccc3)C(=O)N21 [Example 5, Dimethyl (4S,7S,10aS,4′S,7′S,10a′S)-7,7′-(((2R,5R)-2,5-dibenzyl-1,6-dioxo-1,6-hexanediyl)diimino)bis(6-oxodecahydropyrido[1,2-a]azepine-4-carboxylate)] | 200 nM
COC(=O)[C@@H]1CCC[C@@H]2SCC[C@H](NC(=O)[C@H](CC[C@H](Cc3ccc(O)cc3)C(=O)N[C@H]3CCS[C@H]4CCC[C@@H](C(=O)OC)N4C3=O)Cc3ccc(O)cc3)C(=O)N21 [Example 9, Dimethyl (4S,7S,10aS,4′S,7′S,10a′S)-4,4′-(((2R,5R)-2,5-bis(4-hydroxybenzyl)-1,6-dioxo-1,6-hexanediyl)diimino)bis(5-oxooctahydro-7H-pyrido[2,1-b][1,3]thiazepine-7-carboxylate)] | 14 nM
COC(=O)[C@@H]1CCCN2CCC[C@H](NC(=O)[C@H](CC[C@H](Cc3ccccc3)C(=O)N[C@H]3CCCN4CCC[C@@H](C(=O)OC)N4C3=O)Cc3ccccc3)C(=O)N12 [Example 18, Dimethyl (1S,9S,1′S,9′S)-9,9′-(((2R,5R)-2,5-dibenzyl-1,6-dioxo-1,6-hexanediyl)diimino)bis(10-oxooctahydro-6H-pyridazino[1,2-a][1,2]diazepine-1-carboxylate)] | 155 nM
COC(=O)[C@@H]1CCC[C@@H]2SCC[C@H](NC(=O)[C@H](CC[C@H](Cc3ccccc3)C(=O)N[C@H]3CCS[C@H]4CCCCN4C3=O)Cc3ccccc3)C(=O)N21 [Example 30, (4S,7S,10aS)-Methyl 4-((2R,5R)-2,5-dibenzyl-6-oxo-6-((4S,10aS)-5-oxooctahydro-2H-pyrido[2,1-b][1,3]thiazepin-4-ylamino)hexanamido)-5-oxooctahydro-2H-pyrido[2,1-b][1,3]thiazepine-7-carboxylate] | 230 nM
COC(=O)[C@@H]1CCC[C@@H]2SCC[C@H](NC(=O)[C@H](CC[C@H](Cc3ccc(O)cc3)C(=O)N[C@H]3CCS[C@H]4CCC[C@@H](C(=O)OC)N4C3=O)Cc3ccccc3)C(=O)N21 [Example 38, Dimethyl (4S,7S,10aS,4′S,7′S,10a′S)-4,4′-(((2R,5R)-2-benzyl-5-(4-hydroxybenzyl)-1,6-dioxo-1,6-hexanediyl)diimino)bis(5-oxooctahydro-7H-pyrido[2,1-b][1,3]thiazepine-7-carboxylate)] | 5 nM
O=C(N[C@H]1CCCCN(c2ccccc2)C1=O)[C@H](CC[C@H](Cc1ccccc1)C(=O)N[C@H]1CCS[C@H]2CCCCN2C1=O)Cc1ccccc1 [Example 59, (2R,5R)-2,5-Dibenzyl-N1-((S)-2-oxo-1-phenylazepan-3-yl)-N6-((4S,10aS)-5-oxooctahydro-2H-pyrido[2,1-b][1,3]thiazepin-4-yl)hexanediamide] | 270 nM
N#C[C@@H]1CCC[C@@H]2SCC[C@H](NC(=O)[C@H](CC[C@H](Cc3ccccc3)C(=O)N[C@H]3CCCCN(c4ccccc4)C3=O)Cc3ccccc3)C(=O)N12 [Example 72, (2R,5R)-2,5-Dibenzyl-N1-((4S,7S,10aS)-7-cyano-5-oxooctahydro-2H-pyrido[2,1-b][1,3]thiazepin-4-yl)-N6-((S)-2-oxo-1-phenylazepan-3-yl)hexanediamide] | 55 nM
COC[C@@H]1CCC[C@@H]2SCC[C@H](NC(=O)[C@H](CC[C@H](Cc3ccccc3)C(=O)N[C@H]3CCCCN(c4ccccc4)C3=O)Cc3ccccc3)C(=O)N12 [Example 74, (2R,5R)-2,5-Dibenzyl-N1-((4S,7S,10aS)-7-(methoxymethyl)-5-oxooctahydro-2H-pyrido[2,1-b][1,3]thiazepin-4-yl)-N6-((S)-2-oxo-1-phenylazepan-3-yl)hexanediamide] | 470 nM
COc1ccccc1N1CCCC[C@H](NC(=O)[C@H](CC[C@H](Cc2ccccc2)C(=O)N[C@H]2CCS[C@H]3CCC[C@@H](C(F)(F)F)N3C2=O)Cc2ccccc2)C1=O [Example 79, (2R,5R)-2,5-Dibenzyl-N1-((S)-1-(2-methoxyphenyl)-2-oxoazepan-3-yl)-N6-((4S,7S,10aS)-5-oxo-7-(trifluoromethyl)octahydro-2H-pyrido[2,1-b][1,3]thiazepin-4-yl)hexanediamide] | 18 nM
Cc1ccccc1N1CCCC[C@H](NC(=O)[C@H](CC[C@H](Cc2ccccc2)C(=O)N[C@H]2CCS[C@H]3CC[C@@H](C(F)(F)F)CN3C2=O)Cc2ccccc2)C1=O [Example 90, (2R,5R)-2,5-Dibenzyl-N1-((S)-2-oxo-1-o-tolylazepan-3-yl)-N6-((4S,8R,10aS)-5-oxo-8-(trifluoromethyl)octahydro-2H-pyrido[2,1-b][1,3]thiazepin-4-yl)hexanediamide] | 270 nM

The remaining compounds from weak to strong by EC50, led by results:

EC50 | SMILES
835 nM | COC(=O)[C@@H]1CCC[C@@H]2SCC[C@H](NC(=O)[C@H](CC[C@H](CC3CCCCC3)C(=O)N[C@H]3CCS[C@H]4CCC[C@@H](C(=O)OC)N4C3=O)Cc3cccc(Cl)c3)C(=O)N21 [Example 43, Dimethyl (4S,7S,10aS,4′S,7′S,10a′S)-4,4′-(((2R,5R)-2-(3-chlorobenzyl)-5-(cyclohexylmethyl)-1,6-dioxo-1,6-hexanediyl)diimino)bis(5-oxooctahydro-7H-pyrido[2,1-b][1,3]thiazepine-7-carboxylate)]
210 nM | CCC[C@@H](CC[C@H](Cc1cccc(F)c1)C(=O)N[C@H]1CCS[C@H]2CCC[C@@H](C(=O)OC)N2C1=O)C(=O)N[C@H]1CCS[C@H]2CCC[C@@H](C(=O)OC)N2C1=O [Example 100]
60 nM | COC(=O)[C@@H]1CCC[C@@H]2SCC[C@H](NC(=O)[C@H](CC[C@H](Cc3ccccc3)C(=O)N[C@@H]3C(=O)N4CCC[C@@H]4SC3(C)C)Cc3ccccc3)C(=O)N21 [Example 12, (4S,7S,10aS)-Methyl 4-((2R,5R)-2,5-dibenzyl-6-((3R,8aS)-2,2-dimethyl-4-oxohexahydro-2H-pyrrolo[2,1-b][1,3]thiazin-3-ylamino)-6-oxohexanamido)-5-oxooctahydro-2H-pyrido[2,1-b][1,3]thiazepine-7-carboxylate]
24 nM | COC(=O)[C@@H]1CCC[C@@H]2SCC[C@H](NC(=O)[C@H](CC[C@H](CC#N)C(=O)N[C@H]3CCS[C@H]4CCC[C@@H](C(=O)OC)N4C3=O)Cc3ccccc3)C(=O)N21 [Example 32, Dimethyl (4S,7S,10aS,4′S,7′S,10a′S)-4,4′-(((2R,5R)-2-benzyl-5-(cyanomethyl)-1,6-dioxo-1,6-hexanediyl)diimino)bis(5-oxooctahydro-7H-pyrido[2,1-b][1,3]thiazepine-7-carboxylate)]
17 nM | COC(=O)[C@@H]1CCC[C@@H]2SCC[C@H](NC(=O)[C@H](CC[C@H](Cc3ccccc3)C(=O)N[C@H]3CCS[C@H]4CCC[C@@H](C(=O)OC)N4C3=O)Cc3ccccc3)C(=O)N21 [Example 1, Dimethyl (4S,7S,10aS,4′S,7′S,10a′S)-4,4′-(((2R,5R)-2,5-dibenzyl-1,6-dioxo-1,6-hexanediyl)diimino)bis(5-oxooctahydro-7H-pyrido[2,1-b][1,3]thiazepine-7-carboxylate)]
7 nM | COc1ccccc1N1CCCC[C@H](NC(=O)[C@H](CC[C@H](Cc2ccccc2)C(=O)N[C@H]2CCS[C@H]3CCC[C@@H](C#N)N3C2=O)Cc2ccccc2)C1=O [Example 96, (2R,5R)-2,5-Dibenzyl-N1-((4S,7S,10aS)-7-cyano-5-oxooctahydro-2H-pyrido[2,1-b][1,3]thiazepin-4-yl)-N6-((S)-1-(2-methoxyphenyl)-2-oxoazepan-3-yl)hexanediamide]
